Cleared of parasites, IC50 and water solubility data for 1 compound are collected here from patent US9493420B2, “Quinoline derivatives and uses thereof” (Portland State University, priority 2005, dated 2016).

One data set has as its system P. chabaudi parasites. The experiment in a line: 4-day suppressive test in infected mice. In kind it is in vivo. As to conditions: 64 mg/kg oral gavage once per day for four days; male CF-1 mice; by day 4. An excerpt:
Antimalarial compounds can also be tested for efficacy in vivo. One non-limiting exemplary method for performing such testing is the 4-day suppressive test (Peters, Ann. Trop. Med. Parasitol., 69(2):155-171, 1975). Briefly, such test involves collecting P. chabaudi (Mackinnon and Read, Philos. Trans. R. Soc. Lond. B Biol. Sci., 359:965-986, 2004; Mackinnon et al., Exp. Parasitol., 101 (2-3):121-128, 2002) from a donor animal harboring ˜20% parasitemia. Male CF-1 mice at 4-5 weeks of age (˜20 g) are infected with ˜10^7 infected red blood cells via 100 μL tail vein injection and randomly sorted into groups of 4 mice each on day 0. One hour after infection, the mice receive the test agent via oral gavage, or by the intraperitoneal route (at approximately 1-10 times the in vitro IC50 values). Drugs are administered once daily for at least 4 days beginning at day 0. […] Efficacy of a tested compound in this bioassay is measured by inhibition of parasite growth as defined previously. […]
A variation of the 4-day suppressive test described by Peters (Ann. Trop. Med. Parasitol., 69(2):155-171, 1975) was used to test the in vivo effectiveness of RCQ_02 as a treatment for Plasmodium sp. infection. Briefly, P. chabaudi parasites (Mackinnon and Read, Philos. Trans. R. Soc. Lond. B Biol. Sci., 359:965-986, 2004) were collected from a donor animal harboring approximately 20% parasitemia. […]

For data set [1], the target named is T1, recombinant human norepinephrine (hNET) transporter (Homo sapiens, UniProt P23975).
T1 construct: expressed in transfected cells; host or cells: HEK cells expressing hNET
The experiment in a line: Inhibition of [3H]neurotransmitter uptake, hNET. In kind it is cell-based. The protocol: Selected RCQs were tested for inhibition of [^3H]neurotransmitter uptake by the recombinant human serotonin (hSERT), dopamine (HEK-hDAT), and norepinephrine (hNET) transporters by a modification of the method of Eshleman et al. (J. Pharmacol. Exp. Ther., 289(2):877-885, 1999). HEK-hDAT, hSERT, and -hNET expressing cells were grown on tissue culture dishes. After removing the medium and washing the plates with Ca^2+-, Mg^2+-free phosphate buffered saline (PBS), fresh medium was added and the plates were placed in a 25° C. water bath for 5 minutes. Cells were gently lifted from the plates and cell clusters separated by trituration. 50 μL aliquots of the suspended cells were added to assay tubes containing drugs and Krebs-HEPES assay buffer in a final volume of 0.5 mL.
Competition experiments were conducted in triplicate. After a 10 minute preincubation period at 25° C., [^3H]neurotransmitter (20 nM final concentration; [^3H]DA, [^3H]5-HT, or [^3H]NE) were added, and the mixtures incubated for 10 minutes. Reactions were terminated by filtration through Wallac filtermat A filters (presoaked in 0.05% polyethylenimine), using a Tomtec cell harvester. Scintillation fluid was added to each filtered spot, and radioactivity remaining on the filters determined using a Wallac 1205 Betaplate scintillation counter.
Specific uptake was defined as the difference in uptake observed in the absence and presence of 5 μM mazindol (hDAT and hNET) or 5 μM imipramine (hSERT). Inhibition of uptake was determined by non-linear regression using Prism software.

A short description of another data set: Water solubility. The format is physicochemical.

T1 sequence (P23975 whole entry): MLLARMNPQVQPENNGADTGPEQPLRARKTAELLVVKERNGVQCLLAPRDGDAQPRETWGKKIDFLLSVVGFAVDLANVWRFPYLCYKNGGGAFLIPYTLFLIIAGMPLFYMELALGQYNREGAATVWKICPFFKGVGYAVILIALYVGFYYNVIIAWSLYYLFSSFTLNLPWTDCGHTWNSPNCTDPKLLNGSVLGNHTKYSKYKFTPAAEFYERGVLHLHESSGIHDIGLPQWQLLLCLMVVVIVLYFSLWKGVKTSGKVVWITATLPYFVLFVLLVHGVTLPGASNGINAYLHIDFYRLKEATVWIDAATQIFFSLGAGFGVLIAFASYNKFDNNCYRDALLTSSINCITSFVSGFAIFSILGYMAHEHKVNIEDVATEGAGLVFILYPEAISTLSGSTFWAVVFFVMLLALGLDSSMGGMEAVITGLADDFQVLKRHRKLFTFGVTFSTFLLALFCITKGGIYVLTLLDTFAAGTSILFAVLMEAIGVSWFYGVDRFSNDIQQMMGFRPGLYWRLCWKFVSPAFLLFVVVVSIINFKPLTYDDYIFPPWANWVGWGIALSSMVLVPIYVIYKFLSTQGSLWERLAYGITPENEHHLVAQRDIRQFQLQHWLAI

In general, IC50 refers to the concentration that gives 50% inhibition. As to `CN(CCCNc1ccnc2cc(Cl)ccc12)CCCN1c2ccccc2CCc2ccccc21` [RCQ_02, N′-(7-Chloro-quinolin-4-yl)-N-[3-(10,11-dihydro-dibenzo[b,f]azepin-5-yl)-propyl]-N-methyl-propane-1,3-diamine], the cleared of parasites with P. chabaudi parasites is > 99%. Also, in data set [1], the IC50 was 350 nM. In addition, the water solubility result in the data set “Water solubility” is given as “relatively low water solubility”.
